Reference: patent publication US8735632B2, “Compounds” (DSM IP Assets B.V., priority 2009, dated 2014)

Columns and labels:
Format in all cases: physicochemical
[1] = Solubility of BMDBM/BEMT in 1:1 (w/w) mixture C12-15 alkyl benzoate/PG-UVB, stored 1 month at RT, no re-crystallization
[2] = Solubility in C12-15 alkyl benzoate: saturation of the solvent, content in the supernatant by HPLC; details: pure cosmetic solvent
[3] = Reduction of solvent necessary to dissolve solid UV-filter; details: for reduction of the cosmetic solvent necessary to dissolve BMDBM: with PG-UVB 1:1
[4] = C12-15 alkyl benzoate/PG-UVB 1:1 versus C12-15 alkyl benzoate

| Molecule | Δ solubility related to cosmetic solvent ([1]; C12-15 alkyl benzoate/PG-UVB 1:1) | Increase of solubility BMDBM/BEMT [1, 4] | Δ solubility [1, 4] | Solubility in C12-15 alkyl benzoate [2] [wt.-%] | reduction of the cosmetic solvent necessary to dissolve BMDBM ([3]; C12-15 alkyl benzoate) [%] | reduction of the cosmetic solvent necessary to dissolve BMDBM ([3]; diisopropyl sebacate) [%] | amount of 1:1 (w/w) mixture of PG-UVB and C12-15 alkyl benzoate necessary to dissolve 0.5 g BMDBM ([3]; with PG-UVB of example 1) [g] | amount of 1:1 (w/w) mixture of PG-UVB and diisopropyl sebacate needed to dissolve 0.5 g BMDBM ([3]; with PG-UVB of example 1) [g] |
| --- | --- | --- | --- | --- | --- | --- | --- | --- |
| CCCCC(CC)COc1ccc(-c2nc(-c3ccc(OC)cc3)nc(-c3ccc(OCC(CC)CCCC)cc3O)n2)c(O)c1 (centres unmarked) [BEMT, bis-ethylhexyloxyphenol methoxyphenyl triazine] | +13.5 wt.-% | +54% | +7 wt.-% | 13 |  |  |  |  |
| butyl methoxydibenzoylmethane [BMDBM] |  |  |  |  | 75 | 65 | 1.5 | 1.4 |
